Source: patent US20130230459A1, “RADIOLABELLED mGluR2 PET LIGANDS” (Janssen Pharmaceuticals, Inc., priority 2010, published 2013)
Where “and” joins values, the source holds several entries; their conditions need not be identical. Identical values can stand only once.

Assays:
[1] = Plasma radiometabolite analysis (30 min p.i.); assay type: in vivo, Wistar rats; details: n = 2
Description: The metabolic stability of [^11C]B-4, [^11C]B-2, [^11C]B-7, and [^11C]B-10 was studied in healthy male Wistar rats by determination of the relative amounts of parent tracer and radiometabolites in plasma at 30 min p.i. of the tracer. After intravenous (i.v.) administration of about 74 MBq of the radioligand via tail vein under anesthesia (2.5% Isoflurane in O2 at 1 L/min flow rate), rats were sacrificed by decapitation at 30 min p.i. (n=2). Blood was collected in heparin containing tubes (4.5 mL LH PST tubes; BD vacutainer, BD, Franklin Lakes, N.J., USA) and stored on ice to stop the metabolism. Next, the blood was centrifuged for 5 min at 3000 rpm to separate the plasma. About 0.5 mL of plasma was spiked with about 10 μg of the authentic non-radioactive compound (1 mg/mL solution) and injected on to HPLC, which was connected to a Chromolith® performance column (C18, 3 mm×100 mm, Merck KGaA, Darmstadt, Germany). The mobile phase consisted of 0.05 M NaOAc buffer (pH 5.5) (solution A) and CH3CN (solvent B). The following method was used for the analysis: isocratic elution with 100% A for 4 min at a flow rate of 0.5 mL/min, linear gradient to 90% B by 9 min at a flow rate of 1 mL/min, and isocratic elution with mixture of 10% A and 90% B until 12 min. After passing through the UV detector (254 nm), the HPLC eluate was collected as 1 mL fractions (fraction collection each minute) using an automatic fraction collector and the radioactivity of these fractions was measured using an automated gamma counter.

[2] = Biodistribution studies of 11C tracers; assay type: in vivo, Wistar rats; details: for SUV Blood / SUV Cerebellum / SUV Cerebrum total / SUV Cortex / SUV Hippocampus / SUV Striatum: normalized for body weight
Description: Biodistribution studies were carried out in healthy male Wistar rats (body weight 200-450 g) at 2 min, 30 min and 60 min post injection (p.i.) (n=3/time point). Rats were injected with about 11 MBq (2 min, 30 min analysis) or 22 MBq (60 min analysis) of the tracer via tail vein under anesthesia (2.5% isoflurane in O2 at 1 L/min flow rate) and sacrificed by decapitation at above specified time points. Blood and major organs were collected in tared tubes and weighed. The radioactivity in blood, organs and other body parts was measured using an automated gamma counter. The distribution of radioactivity in different parts of the body at different time points p.i. of the tracer was calculated and expressed as percentage of injected dose (% ID), and as percentage of injected dose per gram tissue (% ID/g) for the selected organs. % ID is calculated as cpm in organ/total cpm recovered. For calculation of total radioactivity in blood, blood mass was assumed to be 7% of the body mass.

Intact tracer in rat plasma [1]: 30.8 ± 7.0%
Polar metabolites in rat plasma [1]: 69.2 ± 7.0%
% ID Blood ([2]; 2 min p.i.): 5.4 % ID and 5.4 ± 0.3 % ID
% ID Carcass ([2]; 2 min p.i.): 40 % ID and 39.8 ± 2.8 % ID
% ID Cerebellum ([2]; 2 min p.i.): 0.18 % ID and 0.179 ± 0.043 % ID
% ID Cerebrum total ([2]; 2 min p.i.): 0.53 % ID and 0.529 ± 0.098 % ID
% ID Cortex ([2]; 2 min p.i.): 0.081 ± 0.011 % ID
% ID Heart ([2]; 2 min p.i.): 4.1 ± 0.4 % ID
% ID Hippocampus ([2]; 2 min p.i.): 0.020 ± 0.004 % ID
% ID Intestines ([2]; 2 min p.i.): 8.2 ± 1.1 % ID
% ID Kidneys ([2]; 2 min p.i.): 6.5 ± 0.7 % ID
% ID Liver ([2]; 2 min p.i.): 33.4 ± 2.0 % ID
% ID Lungs ([2]; 2 min p.i.): 1.8 ± 0.7 % ID
% ID Rest of cerebrum ([2]; 2 min p.i.): 0.428 ± 0.084 % ID
% ID Spleen + Pancreas ([2]; 2 min p.i.): 1.3 ± 0.2 % ID
% ID Stomach ([2]; 2 min p.i.): 1.5 ± 0.2 % ID
% ID Striatum ([2]; 2 min p.i.): 0.028 ± 0.008 % ID
% ID Urine ([2]; 2 min p.i.): 0.1 ± 0.0 % ID
Total brain uptake ([2]; 2 min p.i.): 0.75 % ID and 0.75 ± 0.1 % ID
% ID Blood ([2]; 30 min p.i.): 3.5 ± 0.2 % ID
% ID Carcass ([2]; 30 min p.i.): 64.9 ± 4.2 % ID
% ID Cerebellum ([2]; 30 min p.i.): 0.198 ± 0.026 % ID
% ID Cerebrum total ([2]; 30 min p.i.): 0.718 ± 0.142 % ID
% ID Cortex ([2]; 30 min p.i.): 0.120 ± 0.018 % ID
% ID Heart ([2]; 30 min p.i.): 1.4 ± 0.2 % ID
% ID Hippocampus ([2]; 30 min p.i.): 0.030 ± 0.003 % ID
% ID Intestines ([2]; 30 min p.i.): 10.2 ± 1.5 % ID
% ID Kidneys ([2]; 30 min p.i.): 2.8 ± 0.3 % ID
% ID Liver ([2]; 30 min p.i.): 14.6 ± 1.2 % ID
% ID Lungs ([2]; 30 min p.i.): 0.6 ± 0.1 % ID
% ID Rest of cerebrum ([2]; 30 min p.i.): 0.523 ± 0.117 % ID
% ID Spleen + Pancreas ([2]; 30 min p.i.): 1.2 ± 0.3 % ID
% ID Stomach ([2]; 30 min p.i.): 1.4 ± 0.2 % ID
% ID Striatum ([2]; 30 min p.i.): 0.045 ± 0.014 % ID
% ID Urine ([2]; 30 min p.i.): 0.4 ± 0.1 % ID
Total brain uptake ([2]; 30 min p.i.): 0.93 ± 0.2 % ID
% ID Blood ([2]; 60 min p.i.): 3.7 % ID and 3.7 ± 0.4 % ID
% ID Carcass ([2]; 60 min p.i.): 61.5 ± 5.7 % ID
% ID Cerebellum ([2]; 60 min p.i.): 0.163 ± 0.011 % ID
% ID Cerebrum total ([2]; 60 min p.i.): 0.543 ± 0.014 % ID
% ID Cortex ([2]; 60 min p.i.): 0.059 ± 0.007 % ID
% ID Heart ([2]; 60 min p.i.): 0.9 ± 0.1 % ID
% ID Hippocampus ([2]; 60 min p.i.): 0.022 ± 0.003 % ID
% ID Intestines ([2]; 60 min p.i.): 13.4 ± 3.3 % ID
% ID Kidneys ([2]; 60 min p.i.): 2.0 ± 0.3 % ID
% ID Liver ([2]; 60 min p.i.): 15.3 ± 2.1 % ID
% ID Lungs ([2]; 60 min p.i.): 0.7 ± 0.1 % ID
% ID Rest of cerebrum ([2]; 60 min p.i.): 0.435 ± 0.004 % ID
% ID Spleen + Pancreas ([2]; 60 min p.i.): 0.9 ± 0.0 % ID
% ID Stomach ([2]; 60 min p.i.): 2.4 ± 0.7 % ID
% ID Striatum ([2]; 60 min p.i.): 0.026 ± 0.007 % ID
% ID Urine ([2]; 60 min p.i.): 0.5 ± 0.2 % ID
% ID present in liver and intestines ([2]; 60 min p.i.): 28.7 % ID
% ID present in the urinary system ([2]; 60 min p.i.): 2.5 % ID
Total brain uptake ([2]; 60 min p.i.): 0.72 ± 0.0 % ID
Structure (SMILES): [11CH3]Oc1cc(F)cc(F)c1C1CCN(c2ccn3c(CC4CC4)nnc3c2Cl)CC1 [[^11C]B-7, 8-chloro-3-(cyclopropylmethyl)-7-[4-[2,4-difluoro-6-[^11C]methoxyphenyl]-1-piperidinyl]-1,2,4-triazolo[4,3-a]pyridine]
SUV Blood ([2]; 2 min p.i.): 0.80 ± 0.00
SUV Cerebellum ([2]; 2 min p.i.): 1.53 ± 0.03
SUV Cerebrum total ([2]; 2 min p.i.): 1.08 ± 0.02
SUV Cortex ([2]; 2 min p.i.): 1.14 ± 0.03
SUV Hippocampus ([2]; 2 min p.i.): 0.85 ± 0.02
SUV Striatum ([2]; 2 min p.i.): 1.13 ± 0.03
SUV Blood ([2]; 30 min p.i.): 0.50 ± 0.00
SUV Cerebellum ([2]; 30 min p.i.): 2.0 and 2.00 ± 0.03
SUV Cerebrum total ([2]; 30 min p.i.): 1.51 ± 0.03
SUV Cortex ([2]; 30 min p.i.): 1.72 ± 0.05
SUV Hippocampus ([2]; 30 min p.i.): 1.20 ± 0.01
SUV Striatum ([2]; 30 min p.i.): 1.70 ± 0.03
SUV Blood ([2]; 60 min p.i.): 0.50 ± 0.01
SUV Cerebellum ([2]; 60 min p.i.): 1.50 ± 0.01
SUV Cerebrum total ([2]; 60 min p.i.): 1.19 ± 0.01
SUV Cortex ([2]; 60 min p.i.): 1.10 ± 0.01
SUV Hippocampus ([2]; 60 min p.i.): 0.98 ± 0.01
SUV Striatum ([2]; 60 min p.i.): 1.43 ± 0.01
